The results in this text go back to PMC4775224 (2015).

Molecules are shown by their SMILES.

In this experiment the test system is TPP riboswitch aptamer (wtAtRs1 + wtAtRs2 + wtAtRs3, splint-ligated) (RNA, riboswitch, amino-modified U (5-N-U) at 59 (U replaces G88 in paper numbering); amino-modified U (5-LC-N-U) at 123 (U25 in paper numbering)) AUCGAGAGGGACACGGGGAAACACCACCAUAUAUGCACCAGGGGUGCUUGAACCAGGAUAGCCUGCGAAAAGGCGGGCUAUCCGGGACCAGGCUGAGAAAGUCCCUUUGAACCUGAACAGGGUAAUGCCUGCGCAGGGAGUGUGCUAACAAGGUCACCAUCAUCCUGACUAGAGUCCUUGG
Briefly: optical-trap force spectroscopy with smFRET. As to conditions: 130 mM KCl, 4 mM Mg2+, 50 mM HEPES pH 7.5, 1 mM EDTA, oxygen scavengers.

As to `Cc1ncc(C[n+]2csc(CCOP(=O)(O)O)c2C)c(N)n1`, the binding result (2 mM TMP (saturating), arms not docked) was “yes”. As for `Cc1ncc(C[n+]2csc(CCO)c2C)c(N)n1`, the binding result (2 mM thiamine (saturating), arms not docked) is “yes”.

In the case of `Cc1ncc(C[n+]2csc(CCOP(=O)(O)OP(=O)(O)O)c2C)c(N)n1`, the binding result (5 µM, 50 µM and 2 mM TPP, weak then strong state) is recorded as “yes”.
